By EC50 is commonly meant the concentration that produces a half-maximal response.

In one test the target is T1, RORγ-LBD (Homo sapiens, UniProt P51449).
T1 construct: made in house; host or cells: SF9 cells (baculovirus); used as diluted lysate
T1 sequence (P51449 269-508 limits assumed): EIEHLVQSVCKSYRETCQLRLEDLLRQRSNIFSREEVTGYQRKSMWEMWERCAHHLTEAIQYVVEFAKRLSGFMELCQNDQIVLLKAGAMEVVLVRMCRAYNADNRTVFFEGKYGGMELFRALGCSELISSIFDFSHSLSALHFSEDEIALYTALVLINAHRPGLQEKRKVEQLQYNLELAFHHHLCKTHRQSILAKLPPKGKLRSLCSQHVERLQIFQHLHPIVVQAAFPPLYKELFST
Nature of the test: RORγ-Ligand Binding Domain (LBD) TR-FRET Assay.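 For TR-FRET Assay Max Response: 665/615 nm signal ratio set to 100 without ursolic acid or test compound.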 It counts as biochemical. The settings on record: for TR-FRET Assay Max Response: maximum response. The method, boiled down: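 SF9 lysate containing His-RORγ-LBD, ~3 nM final; coactivator peptide biotin-SRC1 LXXLL, 200 nM final; ursolic acid 2 μM final; DMSO 1% final; Tris pH 7.0 buffer with KCl, EDTA, DTT, BSA. TR-FRET format.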
(TR-FRET usually uses a lanthanide donor and a delayed reading to cut background.)

The next test deals with T2, Gal4-RORγ-LBD (Homo sapiens, UniProt P51449).
T2 construct: expressed in transfected cells
T2 sequence (P51449 269-508 limits assumed): T1 sequence (P51449 269-508 limits assumed)
In words: Gal4-RORγ Luciferase Reporter Assay in HEK-293T Cells. The settings on record: HEK-293 cells; for Gal4-RORγ Assay Max Response: maximum response. It counts as cell-based. The method, boiled down:
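HEK-293 cells were co-transfected with Gal4-RORγ-LBD and a Gal4-luciferase reporter, then exposed overnight at 37 °C to compounds with […] ursolic acid present (0.2% DMSO). Luminescence was read with One-Glo after 10 min at RT, untreated signal was set as 100, and Max Response was taken as the upper plateau of a 4-parameter logistic fit.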
(A reporter such as luciferase makes a cellular process visible.)

Where [1] appears, read: luciferase reporter, in presence of ursolic acid.
Where [2] appears, read: luciferase reporter, with ursolic acid.

`CCn1cc(S(=O)(=O)N2C[C@H](CNC(C)=O)Oc3ccc(/C=C/c4ncccc4Cl)cc32)c(Cl)n1` [Example 109E, (S,E)-N-((4-((3-chloro-1-ethyl-1H-pyrazol-4-yl)sulfonyl)-6-(2-(3-chloropyridin-2-yl)vinyl)-3,4-dihydro-2H-benzo[b][1,4]-oxazin-2-yl)methyl)acetamide]: on RORγ-LBD (RORγ-LBD TR-FRET assay), the EC50 was less than 500 nM and the “TR-FRET Assay Max Response” value is “**** (a value greater than 200)”. Moreover, at Gal4-RORγ-LBD (setting [1]), the EC50 was in the range of 500 to 5000 nM and the “Gal4-RORγ Assay Max Response” value was “** (a value in the range of greater than 90 to 150)”.
Turning to `O=C(O)CC[C@H]1CN(S(=O)(=O)c2cccc(C(F)(F)F)c2)c2cc(/C=C/c3ccncn3)ccc2O1` [Example 89CC, (S,E)-3-(6-(2-(pyrimidin-4-yl)vinyl)-4-((3-(trifluoromethyl)-phenyl)sulfonyl)-3,4-dihydro-2H-benzo[b][1,4]oxazin-2-yl)propanoic acid], the EC50 on RORγ-LBD (RORγ-LBD TR-FRET) and on Gal4-RORγ-LBD (setting [2]) was greater than 10000 nM in each case.
Take `C/C(=C\c1ccc2c(c1)N(S(=O)(=O)c1cccc(C(F)(F)F)c1)[C@H](C)[C@H](C(=O)O)C2)c1c(F)cccc1Cl` [Example 142, (2R,3R)-7-((E)-2-(2-Chloro-6-fluorophenyl)prop-1-en-1-yl)-2-methyl-1-((3-(trifluoromethyl)phenyl)sulfonyl)-1,2,3,4-tetrahydroquinoline-3-carboxylate]: at RORγ-LBD (RORγ-LBD TR-FRET assay), the EC50 is less than 500 nM and the “TR-FRET Assay Max Response” value is “** (a value in the range of greater than 90 to 150)”. Also, on Gal4-RORγ-LBD (setting [1]), the EC50 is less than 500 nM and the “Gal4-RORγ Assay Max Response” value is listed as “** (a value in the range of greater than 90 to 150)”.
As to `COC(=O)CC[C@H]1CN(S(=O)(=O)c2cccc(OC(F)F)c2)c2cc(/C=C/c3ncccn3)ccc2O1` [Example 89H, (S,E)-methyl 3-(4-((3-(difluoromethoxy)-phenyl)sulfonyl)-6-(2-(pyrimidin-2-yl)vinyl)-3,4-dihydro-2H-benzo[b][1,4]oxazin-2-yl)propanoate], the EC50 at RORγ-LBD (RORγ-LBD TR-FRET) was less than 500 nM; at Gal4-RORγ-LBD (setting [2]), greater than 10000 nM.
As for `Cn1cnc(S(=O)(=O)N2C[C@H](CCC(=O)O)Oc3ccc(/C=C/c4c(F)cccc4Cl)cc32)c1Cl` [Example 89DZ, (S,E)-3-(4-((5-chloro-1-methyl-1H-imidazol-4-yl)sulfonyl)-6-(2-chloro-6-fluorostyryl)-3,4-dihydro-2H-benzo[b][1,4]-oxazin-2-yl)propanoic acid], the EC50 is 500 to 5000 nM at RORγ-LBD (RORγ-LBD TR-FRET) and greater than 10000 nM at Gal4-RORγ-LBD (setting [2]).
For `CC(C)(O[C@@H]1Cc2ccc(OCc3c(F)cccc3Cl)cc2N(S(=O)(=O)c2cccc(C(F)(F)F)c2)C1)C(=O)O` [Example 172, (R)-2-((7-((2-Chloro-6-fluorobenzyl)oxy)-1-((3-(trifluoromethyl)phenyl)sulfonyl)-1,2,3,4-tetrahydroquinolin-3-yl)oxy)-2-methylpropanoic acid], on RORγ-LBD (RORγ-LBD TR-FRET assay), the EC50 was less than 500 nM and the “TR-FRET Assay Max Response” value is given as “** (a value in the range of greater than 90 to 150)”. For the same compound, on Gal4-RORγ-LBD (setting [1]), the concentration giving a half-maximal response (EC50) was 500 to 5000 nM and the “Gal4-RORγ Assay Max Response” value was “** (a value in the range of greater than 90 to 150)”.
For `COC(=O)CC[C@H]1CN(S(=O)(=O)c2cc(C3CC3)cnc2OCCO)c2cc(/C=C/c3c(F)cccc3Cl)ccc2O1` [Example 89FP, methyl (S,E)-3-(6-(2-chloro-6-fluorostyryl)-4-((5-cyclopropyl-2-(2-hydroxyethoxy)pyridin-3-yl)sulfonyl)-3,4-dihydro-2H-benzo[b][1,4]oxazin-2-yl)propanoate], the EC50 is less than 500 nM on RORγ-LBD (with 2 μM ursolic acid (RORγ antagonist), highest test concentration 10 μM) and less than 500 nM on Gal4-RORγ-LBD (ursolic acid present, luciferase readout).
Take `Cc1cnc(/C=C/c2ccc3c(c2)N(S(=O)(=O)c2cccc(C(F)(F)F)c2)C[C@H](CCC(=O)O)O3)c(F)c1` [Example 89CF, (S,E)-3-(6-(2-(3-fluoro-5-methylpyridin-2-yl)vinyl)-4-((3-(trifluoromethyl)phenyl)sulfonyl)-3,4-dihydro-2H-benzo[b][1,4]-oxazin-2-yl)propanoic acid]: the EC50 at RORγ-LBD (RORγ-LBD TR-FRET) was 500 to 5000 nM; on Gal4-RORγ-LBD (setting [2]) it was greater than 10000 nM.
As for `O=C(O)CO[C@@H]1Cc2ccc(OCc3c(F)cccc3Cl)cc2N(S(=O)(=O)c2cccc(C(F)(F)F)c2)C1` [Example 157, (R)-2-((7-((2-Chloro-6-fluorobenzyl)oxy)-1-((3-(trifluoromethyl)phenyl)sulfonyl)-1,2,3,4-tetrahydroquinolin-3-yl)oxy)acetic acid], on RORγ-LBD (RORγ-LBD TR-FRET assay), the concentration for a half-maximal effect (EC50) was less than 500 nM and the “TR-FRET Assay Max Response” value was “** (a value in the range of greater than 90 to 150)”. Also, on Gal4-RORγ-LBD (setting [1]), the EC50 lay in the range of 500 to 5000 nM and the “Gal4-RORγ Assay Max Response” value is “** (a value in the range of greater than 90 to 150)”.
In the case of `C/C(=C\c1ccc2c(c1)N(S(=O)(=O)c1cccc(C(F)(F)F)c1)C[C@H](CCC(=O)N1CC3(COC3)C1)O2)c1c(F)cccc1Cl` [Example 127D, (S,E)-3-(6-(2-(2-chloro-6-fluorophenyl)prop-1-en-1-yl)-4-((3-(trifluoro-methyl)phenyl)sulfonyl)-3,4-dihydro-2H-benzo[b][1,4]oxazin-2-yl)-1-(2-oxa-6-azaspiro[3.3]heptan-6-yl)propan-1-one], at RORγ-LBD (RORγ-LBD TR-FRET assay), the EC50 is less than 500 nM and the “TR-FRET Assay Max Response” value is reported as “**** (a value greater than 200)”. Moreover, at Gal4-RORγ-LBD (setting [1]), the EC50 was less than 500 nM and the “Gal4-RORγ Assay Max Response” value is recorded as “** (a value in the range of greater than 90 to 150)”.
Turning to `CC/C(=C\c1ccc2c(c1)N(S(=O)(=O)c1cccc(C(F)(F)F)c1)C[C@H](CCC(=O)OC)O2)c1ccccc1Cl` [Example 35, Methyl (S,E)-3-(6-(2-(2-chlorophenyl)but-1-en-1-yl)-4-((3-(trifluoromethyl)phenyl)sulfonyl)-3,4-dihydro-2H-benzo[b][1,4]oxazin-2-yl)propanoate], the figures for the EC50 on RORγ-LBD (RORγ-LBD TR-FRET) and at Gal4-RORγ-LBD (setting [2]) were less than 500 nM and 500 to 5000 nM, respectively.
`C/C(=C\c1ccc2c(c1)C(S(=O)(=O)c1cccc(C(F)(F)F)c1)CC(CC(C)(C)C(=O)O)O2)c1c(F)cccc1Cl` (centres unmarked) [Example 186N, (E)-3-(6-(2-(2-chloro-6-fluorophenyl)prop-1-en-1-yl)-4-((3-(trifluoromethyl)phenyl)-sulfonyl)chroman-2-yl)-2,2-dimethylpropanoic acid]: at RORγ-LBD (RORγ-LBD TR-FRET assay), the EC50 is less than 500 nM and the “TR-FRET Assay Max Response” value was “*** (a value in the range of greater than 150 to 200)”. Also, at Gal4-RORγ-LBD (setting [1]), the 50% effective concentration (EC50) was less than 500 nM and the “Gal4-RORγ Assay Max Response” value is recorded as “** (a value in the range of greater than 90 to 150)”.
`O=C(CC[C@H]1CN(S(=O)(=O)c2cccc(C(F)(F)F)c2)c2cc(/C=C/c3c(F)cccc3Cl)ccc2O1)N1CC2(COC2)C1` [Example 127I, (S,E)-3-(6-(2-chloro-6-fluorostyryl)-4-((3-(trifluoromethyl)phenyl)sulfonyl)-3,4-dihydro-2H-benzo[b][1,4]oxazin-2-yl)-1-(2-oxa-6-azaspiro[3.3]heptan-6-yl)propan-1-one]: on RORγ-LBD (RORγ-LBD TR-FRET assay), the EC50 is less than 500 nM and the “TR-FRET Assay Max Response” value is “*** (a value in the range of greater than 150 to 200)”. Also, at Gal4-RORγ-LBD (setting [1]), the 50% effective concentration (EC50) is 500 to 5000 nM and the “Gal4-RORγ Assay Max Response” value is “** (a value in the range of greater than 90 to 150)”.
For `CCOc1ncc(C(F)(F)F)cc1S(=O)(=O)N1C[C@H](CCC(=O)O)Oc2ccc(/C=C(\C)c3c(F)cccc3Cl)cc21` [Example 34, (S,E)-3-(6-(2-(2-Chloro-6-fluorophenyl)prop-1-en-1-yl)-4-((2-ethoxy-5-(trifluoromethyl)pyridin-3-yl)sulfonyl)-3,4-dihydro-2H-benzo[b][1,4]oxazin-2-yl)propanoic acid], the EC50 was less than 500 nM on RORγ-LBD (RORγ-LBD TR-FRET) and 500 to 5000 nM at Gal4-RORγ-LBD (setting [2]).
Taken in the same sequence, the figures for `CCn1cc(S(=O)(=O)N2C[C@H]([C@@H](C)N)Oc3ccc(/C=C(\C)c4c(F)cccc4Cl)cc32)c(Cl)n1` [Example 101, (R)-1-((R)-4-((3-Chloro-1-ethyl-1H-pyrazol-4-yl)sulfonyl)-6-((E)-2-(2-chloro-6-fluorophenyl)prop-1-en-1-yl)-3,4-dihydro-2H-benzo[b][1,4]oxazin-2-yl)ethan-1-amine] were less than 500 nM and greater than 10000 nM.
Take `COc1cc(S(=O)(=O)N2c3cc(/C=C(\C)c4c(F)cccc4Cl)ccc3O[C@@H](CNC(C)=O)[C@H]2C)ccc1F` [Example 137]: on RORγ-LBD (RORγ-LBD TR-FRET assay), the EC50 is less than 500 nM and the “TR-FRET Assay Max Response” value is given as “**** (a value greater than 200)”. On Gal4-RORγ-LBD (setting [1]), the concentration giving a half-maximal response (EC50) is less than 500 nM and the “Gal4-RORγ Assay Max Response” value is recorded as “** (a value in the range of greater than 90 to 150)”.
For `CCOc1nn(CC)cc1S(=O)(=O)N1C[C@H](CCC(=O)OC)Oc2ccc(/C=C/c3c(Cl)cccc3C(F)(F)F)cc21` [Example 89DP, methyl (S,E)-3-(6-(2-chloro-6-(trifluoromethyl)styryl)-4-((3-ethoxy-1-ethyl-1H-pyrazol-4-yl)sulfonyl)-3,4-dihydro-2H-benzo[b][1,4]oxazin-2-yl)propanoate], the 50% effective concentration (EC50) on RORγ-LBD (RORγ-LBD TR-FRET) and on Gal4-RORγ-LBD (setting [2]) was less than 500 nM throughout.
